The text below walks through data of publication PMC2504886 (The Journal of Biological Chemistry, 2008).

Each structure is given as a SMILES string.

This assay addresses T1, T. maritima CopA (WT CopA) (Thermotoga maritima, UniProt Q9WYF3).
T1 sequence (Q9WYF3 1-726): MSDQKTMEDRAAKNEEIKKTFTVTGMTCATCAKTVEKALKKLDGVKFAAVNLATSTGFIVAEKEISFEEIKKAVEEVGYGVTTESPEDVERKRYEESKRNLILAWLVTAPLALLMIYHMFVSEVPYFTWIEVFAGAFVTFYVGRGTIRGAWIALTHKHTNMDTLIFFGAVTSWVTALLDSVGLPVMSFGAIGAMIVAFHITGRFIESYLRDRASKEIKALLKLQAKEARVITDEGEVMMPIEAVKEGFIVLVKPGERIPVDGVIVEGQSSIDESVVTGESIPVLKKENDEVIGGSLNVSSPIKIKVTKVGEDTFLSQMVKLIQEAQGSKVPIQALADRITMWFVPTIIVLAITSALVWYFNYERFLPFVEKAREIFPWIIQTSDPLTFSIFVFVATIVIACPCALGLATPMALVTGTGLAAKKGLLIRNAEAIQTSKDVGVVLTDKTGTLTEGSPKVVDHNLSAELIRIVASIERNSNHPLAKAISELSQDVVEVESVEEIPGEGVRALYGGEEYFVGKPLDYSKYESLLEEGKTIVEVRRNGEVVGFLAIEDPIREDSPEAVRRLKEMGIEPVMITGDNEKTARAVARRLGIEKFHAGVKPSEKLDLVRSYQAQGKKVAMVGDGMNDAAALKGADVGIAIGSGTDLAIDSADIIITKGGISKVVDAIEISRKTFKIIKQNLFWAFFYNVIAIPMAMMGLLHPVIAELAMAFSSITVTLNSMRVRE
Put plainly: phosphoenzyme. It is filed as binding.

Broadly, the Kd is the free concentration of one partner at which half of the binding sites on the other are occupied at equilibrium, for simple one-to-one binding. A lower Kd goes with higher affinity. In turn, `O=P(O)(O)O` [Pi] registered a Kd of 3.3 µM.
